Patent US20240059691A1 (KALVISTA PHARMACEUTICALS LIMITED, priority 2020, published 2024)

Experiments:
KLK1 = KLK1 (Homo sapiens (Human), UniProt P06870); assay: Determination of related protease inhibition: KLK1 (fluorogenic substrate at Km); assay type: biochemical; details: 25° C.
Procedure: Determination of Related Protease Inhibition
In vitro inhibition of related proteases was determined using an ([…] assay based on standard literature methods (see e.g. Shori et al., Biochem. Pharmacol., 1992, 43, 1209; Bouckaert et al., European Journal of Medicinal Chemistry 110 (2016) 181). Human serine protease enzymes Plasma Kallikrein, KLK1, FXa, Plasmin, Thrombin and Trypsin were assayed for enzymatic activity using an appropriate fluorogenic substrate at Km concentration, FXIa at fixed substrate concentration of 100 μM, and various concentrations of the test compound. Protease activity was measured by monitoring the accumulation of liberated fluorescence from the substrate over […]. The linear rate of fluorescence increase per minute was expressed as percentage (%) activity. IC50 values were calculated as the concentration of inhibitor giving 50% inhibition of the uninhibited enzyme activity (100%).

Human Factor XIIa = Human Factor XIIa (Homo sapiens (Human), UniProt P00748); assay: Determination of FXIIa inhibition (fluorogenic substrate H-DPro-Phe-Arg-AFC, IC50 assay); assay type: biochemical; details: substrate H-DPro-Phe-Arg-AFC at Km, 25° C.; class scale A-G
Chain of Human Factor XIIa (P00748 373-615): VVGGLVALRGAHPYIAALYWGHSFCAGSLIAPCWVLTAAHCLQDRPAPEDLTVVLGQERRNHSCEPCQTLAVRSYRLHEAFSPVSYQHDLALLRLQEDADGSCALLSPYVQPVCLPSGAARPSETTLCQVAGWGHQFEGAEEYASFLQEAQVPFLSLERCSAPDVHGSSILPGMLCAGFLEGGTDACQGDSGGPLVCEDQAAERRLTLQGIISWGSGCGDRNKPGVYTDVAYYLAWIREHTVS
Method in brief: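 Human FXIIa incubated at 25° C with fluorogenic substrate H-DPro-Phe-Arg-AFC at its Km concentration and varying compound concentrations. Fluorescence release monitored over 5 min at 25° C; linear rate expressed as % of uninhibited activity to derive IC50.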

Chain of KLK1 (P06870 25-262): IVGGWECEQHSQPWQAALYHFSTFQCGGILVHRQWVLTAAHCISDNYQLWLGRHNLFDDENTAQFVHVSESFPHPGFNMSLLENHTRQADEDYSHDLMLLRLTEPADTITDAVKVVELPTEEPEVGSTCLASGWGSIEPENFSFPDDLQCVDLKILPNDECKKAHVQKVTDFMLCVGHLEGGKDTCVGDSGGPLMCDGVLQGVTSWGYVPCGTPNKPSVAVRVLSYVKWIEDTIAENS

Structure (SMILES) | IC50 (KLK1) [µM] | IC50 (Human Factor XIIa) [µM]
CC(C)N1C[C@H]2C[C@@H]1CN2Cc1cc(CNc2cccc3c(N)nccc23)ccn1 [Example 4295, 5-N-[(2-{[(1R,4R)-5-isopropyl-2,5-diazabicyclo[2.2.1]heptan-2-yl]methyl}pyridin-4-yl)methyl]isoquinoline-1,5-diamine] | 10 to 40 | 10 to 40
Cc1cc(N2CCn3c(nnc3C(F)(F)F)C2)ncc1CNc1ccnc2[nH]c(Cl)cc12 [Example 1313, 2-Chloro-N-((4-methyl-6-(3-(trifluoromethyl)-5,6-dihydro-[1,2,4]triazolo[4,3-a]pyrazin-7(8H)-yl)pyridin-3-yl)methyl)-1H-pyrrolo[2,3-b]pyridin-4-amine] | > 4 | 0.1 to 0.3
Nc1nccc2c(NCc3cnc(N4CCn5c(nnc5C(F)(F)F)C4)cc3C3CC3)cccc12 [Example 1307, N5-((4-cyclopropyl-6-(3-(trifluoromethyl)-5,6-dihydro-[1,2,4]triazolo[4,3-a]pyrazin-7(8H)-yl)pyridin-3-yl)methyl)isoquinoline-1,5-diamine] | 3 to 10 | 0.3 to 1
CCc1cc(N2CCn3c(nnc3C(F)(F)F)C2)ncc1CNc1cccc2c(N)nccc12 [Example 1309, N5-((4-ethyl-6-(3-(trifluoromethyl)-5,6-dihydro-[1,2,4]triazolo[4,3-a]pyrazin-7(8H)-yl)pyridin-3-yl)methyl)isoquinoline-1,5-diamine] | > 4 | 0.01 to 0.1
Nc1nccc2c(NCc3cnc(N4CCn5c(nnc5C(F)(F)F)C4)c(C(F)(F)F)c3)cccc12 [Example 1306, N5-((5-(trifluoromethyl)-6-(3-(trifluoromethyl)-5,6-dihydro-[1,2,4]triazolo[4,3-a]pyrazin-7(8H)-yl)pyridin-3-yl)methyl)isoquinoline-1,5-diamine] | 1 to 3 | 
CC1Cn2c(nnc2C(F)(F)F)CN1c1ccc(CNc2cccc3c(N)nccc23)cn1 (stereo not drawn) [Example 1311, N5-((6-(6-Methyl-3-(trifluoromethyl)-5,6-dihydro-[1,2,4]triazolo[4,3-a]pyrazin-7(8H)-yl)pyridin-3-yl)methyl)isoquinoline-1,5-diamine] | 3 to 10 | 0.01 to 0.1
Cc1cc(N2CCn3c(nnc3C(F)(F)F)C2)cnc1CNc1cccc2c(N)nccc12 [Example 9005, N5-((3-Methyl-5-(3-(trifluoromethyl)-5,6-dihydro-[1,2,4]triazolo[4,3-a]pyrazin-7(8H)-yl)pyridin-2-yl)methyl)isoquinoline-1,5-diamine] | > 4 | 0.01 to 0.1
Nc1nccc2c(NCc3ccc(N4CCn5c(nnc5C(F)(F)F)C4)nn3)cccc12 [Example 9004, N5-((6-(3-(Trifluoromethyl)-5,6-dihydro-[1,2,4]triazolo[4,3-a]pyrazin-7(8H)-yl)pyridazin-3-yl)methyl)isoquinoline-1,5-diamine] | 3 to 10 | 0.3 to 1
Cc1cc(N2CCn3c(nnc3C(F)(F)F)C2C)ncc1CNc1cccc2c(N)nccc12 (racemic) [Example 1303, N5-((4-Methyl-6-(8-methyl-3-(trifluoromethyl)-5,6-dihydro-[1,2,4]triazolo[4,3-a]pyrazin-7(8H)-yl)pyridin-3-yl)methyl)isoquinoline-1,5-diamine] | > 4 | 0.01 to 0.1
Cc1cc(N2CCn3c(nnc3C(F)(F)F)C2C)ncc1CNc1cccc2c(N)nccc12 (single isomer, unassigned) [Example 1304, (R*)-N5-((4-methyl-6-(8-methyl-3-(trifluoromethyl)-5,6-dihydro-[1,2,4]triazolo[4,3-a]pyrazin-7(8H)-yl)pyridin-3-yl)methyl)isoquinoline-1,5-diamine] | 3 to 10 | 3 to 10
Cc1nnc2n1CCN(c1ccc(CNc3cccc4c(N)nccc34)cn1)CC2 [Example 1310, N5-((6-(3-methyl-5,6,8,9-tetrahydro-7H-[1,2,4]triazolo[4,3-d][1,4]diazepin-7-yl)pyridin-3-yl)methyl)isoquinoline-1,5-diamine] | 1 to 3 | 1 to 3
